Test results published in PubChem BioAssay (NCI).
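Here, GI50 denotes the concentration required for 50% inhibition of growth. TGI: concentration producing complete growth inhibition.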

Columns and labels:
Assay in all cases: growth of human tumour cells (NCI), 384-well format
786-0 renal = test system: 786-0 renal
A498 renal = test system: A498 renal
A549 NSCLC = test system: A549 NSCLC
ACHN renal = test system: ACHN renal
BT-549 breast = test system: BT-549 breast
CAKI-1 renal = test system: CAKI-1 renal
CCRF-CEM leukemia = test system: CCRF-CEM leukemia
COLO 205 colon = test system: COLO 205 colon
DU-145 prostate = test system: DU-145 prostate
HCC-2998 colon = test system: HCC-2998 colon
HCT-116 colon = test system: HCT-116 colon
HCT-15 colon = test system: HCT-15 colon
HL-60(TB) leukemia = test system: HL-60(TB) leukemia
HOP-62 NSCLC = test system: HOP-62 NSCLC
HOP-92 NSCLC = test system: HOP-92 NSCLC
HT29 colon = test system: HT29 colon
IGROV1 ovarian = test system: IGROV1 ovarian
K-562 leukemia = test system: K-562 leukemia
KM12 colon = test system: KM12 colon
LOX IMVI melanoma = test system: LOX IMVI melanoma
M14 melanoma = test system: M14 melanoma
MALME-3M melanoma = test system: MALME-3M melanoma
MCF7 breast = test system: MCF7 breast
MDA-MB-231 breast = test system: MDA-MB-231 breast
MDA-MB-435 melanoma = test system: MDA-MB-435 melanoma
MDA-MB-468 breast = test system: MDA-MB-468 breast
MOLT-4 leukemia = test system: MOLT-4 leukemia
NCI-H226 lung = test system: NCI-H226 lung
NCI-H23 lung = test system: NCI-H23 lung
NCI-H322M lung = test system: NCI-H322M lung
NCI-H460 NSCLC = test system: NCI-H460 NSCLC
NCI-H522 lung = test system: NCI-H522 lung
NCI/ADR-RES ovarian = test system: NCI/ADR-RES ovarian
OVCAR-3 ovarian = test system: OVCAR-3 ovarian
OVCAR-4 ovarian = test system: OVCAR-4 ovarian
OVCAR-5 ovarian = test system: OVCAR-5 ovarian
OVCAR-8 ovarian = test system: OVCAR-8 ovarian
PC-3 prostate = test system: PC-3 prostate
RPMI-8226 leukemia = test system: RPMI-8226 leukemia
RXF 393 renal = test system: RXF 393 renal
SF-268 CNS = test system: SF-268 CNS
SF-295 CNS = test system: SF-295 CNS
SF-539 CNS = test system: SF-539 CNS
SK-MEL-2 melanoma = test system: SK-MEL-2 melanoma
SK-MEL-28 melanoma = test system: SK-MEL-28 melanoma
SK-MEL-5 melanoma = test system: SK-MEL-5 melanoma
SK-OV-3 ovarian = test system: SK-OV-3 ovarian
SN12C renal = test system: SN12C renal
SNB-19 CNS = test system: SNB-19 CNS
SR leukemia = test system: SR leukemia
SW-620 colon = test system: SW-620 colon
T-47D breast = test system: T-47D breast
TK-10 renal = test system: TK-10 renal
U251 glioblastoma = test system: U251 glioblastoma
UACC-257 melanoma = test system: UACC-257 melanoma
UACC-62 melanoma = test system: UACC-62 melanoma
UO-31 renal = test system: UO-31 renal
EKVX NSCLC = test system: EKVX NSCLC
HS 578T breast = test system: HS 578T breast
SNB-75 CNS = test system: SNB-75 CNS

## C#CCN(c1ccc(C(=O)N[C@@H](CCC(=O)N[C@H](CCC(=O)O)C(=O)O)C(=O)O)cc1)C1CCc2cc3nc(CO)[nH]c(=O)c3cc21 (some centres not stated)
786-0 renal
  GI50: 3.69 µM
  TGI: 31.1 µM
A498 renal
  GI50: 5.06 µM
  TGI: > 100 µM
A549 NSCLC
  GI50: 5.94 µM
  TGI: > 100 µM
ACHN renal
  GI50: 4.25 µM
  TGI: > 100 µM
BT-549 breast
  GI50: 6.68 µM
  TGI: > 100 µM
CAKI-1 renal
  GI50: 8.9 µM
  TGI: > 100 µM
CCRF-CEM leukemia
  GI50: 1.97 µM
  TGI: 4.68 µM
COLO 205 colon
  GI50: 7.84 µM
  TGI: > 100 µM
DU-145 prostate
  GI50: 3.49 µM
  TGI: 20.3 µM
HCC-2998 colon
  GI50: 0.386 µM
  TGI: 3.96 µM
HCT-116 colon
  GI50: 4.57 µM
  TGI: > 100 µM
HCT-15 colon
  GI50: 5.2 µM
  TGI: > 100 µM
HL-60(TB) leukemia
  GI50: 3.02 µM
  TGI: 7.56 µM
HOP-62 NSCLC
  GI50: 10.5 µM
  TGI: 45.8 µM
HOP-92 NSCLC
  GI50: 13.3 µM
  TGI: > 100 µM
HT29 colon
  GI50: 5.23 µM
  TGI: > 100 µM
IGROV1 ovarian
  GI50: 60.3 µM
  TGI: > 100 µM
K-562 leukemia
  GI50: 7.67 µM
  TGI: > 100 µM
KM12 colon
  GI50: > 100 µM
  TGI: > 100 µM
LOX IMVI melanoma
  GI50: 5.03 µM
  TGI: > 100 µM
M14 melanoma
  GI50: 8.69 µM
  TGI: > 100 µM
MALME-3M melanoma
  GI50: > 100 µM
  TGI: > 100 µM
MCF7 breast
  GI50: 0.8 µM
  TGI: > 100 µM
MDA-MB-231 breast
  GI50: > 100 µM
  TGI: > 100 µM
MDA-MB-435 melanoma
  GI50: > 100 µM
  TGI: > 100 µM
MDA-MB-468 breast
  GI50: 3.72 µM
  TGI: 8.76 µM
MOLT-4 leukemia
  GI50: 2.67 µM
  TGI: 5.52 µM
NCI-H226 lung
  GI50: 35.4 µM
  TGI: > 100 µM
NCI-H23 lung
  GI50: 21.9 µM
  TGI: 57.3 µM
NCI-H322M lung
  GI50: > 100 µM
  TGI: > 100 µM
NCI-H460 NSCLC
  GI50: 5.02 µM
  TGI: > 100 µM
NCI-H522 lung
  GI50: 3.04 µM
  TGI: 7.83 µM
NCI/ADR-RES ovarian
  GI50: 3.18 µM
  TGI: 8.45 µM
OVCAR-3 ovarian
  GI50: 9.01 µM
  TGI: > 100 µM
OVCAR-4 ovarian
  GI50: > 100 µM
  TGI: > 100 µM
OVCAR-5 ovarian
  GI50: > 100 µM
  TGI: > 100 µM
OVCAR-8 ovarian
  GI50: 4.54 µM
  TGI: > 100 µM
PC-3 prostate
  GI50: 9.44 µM
  TGI: > 100 µM
RPMI-8226 leukemia
  GI50: 2 µM
  TGI: 4.03 µM
RXF 393 renal
  GI50: 8.09 µM
  TGI: 71.9 µM
SF-268 CNS
  GI50: 4.09 µM
  TGI: 27.5 µM
SF-295 CNS
  GI50: 2.76 µM
  TGI: 7 µM
SF-539 CNS
  GI50: 4.67 µM
  TGI: > 100 µM
SK-MEL-2 melanoma
  GI50: 99.9 µM
  TGI: > 100 µM
SK-MEL-28 melanoma
  GI50: 5.13 µM
  TGI: > 100 µM
SK-MEL-5 melanoma
  GI50: 11.6 µM
  TGI: > 100 µM
SK-OV-3 ovarian
  GI50: 43.2 µM
  TGI: > 100 µM
SN12C renal
  GI50: 3.75 µM
  TGI: 46.9 µM
SNB-19 CNS
  GI50: 5.96 µM
  TGI: > 100 µM
SR leukemia
  GI50: 1.9 µM
  TGI: 3.38 µM
SW-620 colon
  GI50: 9 µM
  TGI: > 100 µM
T-47D breast
  GI50: > 100 µM
  TGI: > 100 µM
TK-10 renal
  GI50: 6.69 µM
  TGI: > 100 µM
U251 glioblastoma
  GI50: 68.9 µM
  TGI: > 100 µM
UACC-257 melanoma
  GI50: > 100 µM
  TGI: > 100 µM
UACC-62 melanoma
  GI50: 64.6 µM
  TGI: > 100 µM
UO-31 renal
  GI50: 4.46 µM
  TGI: 62.4 µM

## Cc1cc(Nc2nc(N[C@@H](C)c3ncc(F)cn3)ncc2Cl)n[nH]1
786-0 renal
  GI50: 33.6 µM
  TGI: > 100 µM
A498 renal
  GI50: 35.8 µM
  TGI: > 100 µM
A549 NSCLC
  GI50: 30.4 µM
  TGI: > 100 µM
ACHN renal
  GI50: 31.2 µM
  TGI: > 100 µM
BT-549 breast
  GI50: 20.7 µM
  TGI: 78.1 µM
CAKI-1 renal
  GI50: 23.7 µM
  TGI: > 100 µM
CCRF-CEM leukemia
  GI50: 20.7 µM
  TGI: 45.1 µM
COLO 205 colon
  GI50: 41 µM
  TGI: > 100 µM
DU-145 prostate
  GI50: 37.1 µM
  TGI: > 100 µM
EKVX NSCLC
  GI50: 23.9 µM
  TGI: 79.3 µM
HCC-2998 colon
  GI50: 28.3 µM
  TGI: > 100 µM
HCT-116 colon
  GI50: 17.4 µM
  TGI: > 100 µM
HCT-15 colon
  GI50: 26.4 µM
  TGI: > 100 µM
HL-60(TB) leukemia
  GI50: 16 µM
  TGI: 31 µM
HOP-62 NSCLC
  GI50: 39.1 µM
  TGI: > 100 µM
HOP-92 NSCLC
  GI50: 27.8 µM
  TGI: 91.3 µM
HS 578T breast
  GI50: 11.6 µM
  TGI: 29.9 µM
HT29 colon
  GI50: 27.4 µM
  TGI: > 100 µM
IGROV1 ovarian
  GI50: 27.8 µM
  TGI: > 100 µM
K-562 leukemia
  GI50: 27.9 µM
  TGI: > 100 µM
KM12 colon
  GI50: 0.381 µM
  TGI: > 100 µM
LOX IMVI melanoma
  GI50: 27.6 µM
  TGI: 71 µM
M14 melanoma
  GI50: 61.7 µM
  TGI: > 100 µM
MALME-3M melanoma
  GI50: 52.8 µM
  TGI: > 100 µM
MCF7 breast
  GI50: 44.3 µM
  TGI: > 100 µM
MDA-MB-231 breast
  GI50: 27.5 µM
  TGI: > 100 µM
MDA-MB-435 melanoma
  GI50: 17.1 µM
  TGI: > 100 µM
MDA-MB-468 breast
  GI50: 17.3 µM
  TGI: 33.1 µM
MOLT-4 leukemia
  GI50: 16.7 µM
  TGI: 33.8 µM
NCI-H226 lung
  GI50: 12 µM
  TGI: > 100 µM
NCI-H23 lung
  GI50: 35.2 µM
  TGI: > 100 µM
NCI-H322M lung
  GI50: 42.6 µM
  TGI: > 100 µM
NCI-H460 NSCLC
  GI50: 21.5 µM
  TGI: > 100 µM
NCI-H522 lung
  GI50: 4.66 µM
  TGI: 28.5 µM
NCI/ADR-RES ovarian
  GI50: 20.2 µM
  TGI: 60.4 µM
OVCAR-3 ovarian
  GI50: 43.8 µM
  TGI: > 100 µM
OVCAR-4 ovarian
  GI50: 77.8 µM
  TGI: > 100 µM
OVCAR-5 ovarian
  GI50: 45.1 µM
  TGI: > 100 µM
PC-3 prostate
  GI50: 42.1 µM
  TGI: > 100 µM
RPMI-8226 leukemia
  GI50: 18.4 µM
  TGI: 73 µM
RXF 393 renal
  GI50: 18.9 µM
  TGI: 46 µM
SF-268 CNS
  GI50: 18.4 µM
  TGI: 63.4 µM
SF-295 CNS
  GI50: 47.4 µM
  TGI: > 100 µM
SF-539 CNS
  GI50: 14 µM
  TGI: 34.1 µM
SK-MEL-2 melanoma
  GI50: 44.7 µM
  TGI: 85.1 µM
SK-MEL-28 melanoma
  GI50: 59.1 µM
  TGI: > 100 µM
SK-MEL-5 melanoma
  GI50: 30.5 µM
  TGI: > 100 µM
SK-OV-3 ovarian
  GI50: 18.6 µM
  TGI: 78.1 µM
SN12C renal
  GI50: 31.3 µM
  TGI: > 100 µM
SNB-19 CNS
  GI50: 47.5 µM
  TGI: > 100 µM
SNB-75 CNS
  GI50: 8.7 µM
  TGI: 27.9 µM
SR leukemia
  GI50: 5.01 µM
  TGI: 12.2 µM
SW-620 colon
  GI50: 24.3 µM
  TGI: 91.3 µM
T-47D breast
  GI50: 29.8 µM
  TGI: > 100 µM
TK-10 renal
  GI50: 34.6 µM
  TGI: > 100 µM
U251 glioblastoma
  GI50: 32.1 µM
  TGI: > 100 µM
UACC-257 melanoma
  GI50: > 100 µM
  TGI: > 100 µM
UACC-62 melanoma
  GI50: 40.7 µM
  TGI: > 100 µM
UO-31 renal
  GI50: 36.7 µM
  TGI: > 100 µM
